This is an account of results in paper PMC6487875 (Biochemistry, 2018).

Assay [1] concerns the target T1, GOT1 (glutamate oxaloacetate transaminase 1, aspartate aminotransferase 1) (Homo sapiens, UniProt P17174). The experiment in a line: X-ray crystal structure, […] Å. It counts as binding.
Assay [2] concerns the target T1, GOT1 (glutamate oxaloacetate transaminase 1, aspartate aminotransferase 1). Nature of the assay: GLOX/HRP-coupled GOT1 enzyme assay. It is filed as biochemical.
Assay [3] has the same target. Nature of the assay: GLOX/HRP-coupled enzyme kinetics. It is filed as biochemical.

T1 sequence (P17174 2-413): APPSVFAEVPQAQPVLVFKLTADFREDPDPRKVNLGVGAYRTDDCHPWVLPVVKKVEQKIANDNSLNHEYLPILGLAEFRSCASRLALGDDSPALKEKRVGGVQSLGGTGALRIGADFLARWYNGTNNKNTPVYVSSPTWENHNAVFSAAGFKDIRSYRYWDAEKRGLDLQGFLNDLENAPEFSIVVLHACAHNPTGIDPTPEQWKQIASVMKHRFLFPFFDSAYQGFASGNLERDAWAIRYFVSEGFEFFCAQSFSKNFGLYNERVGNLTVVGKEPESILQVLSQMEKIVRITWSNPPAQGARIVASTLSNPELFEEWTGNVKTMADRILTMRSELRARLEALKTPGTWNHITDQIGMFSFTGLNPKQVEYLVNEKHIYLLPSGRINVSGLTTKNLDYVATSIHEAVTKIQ

As for `Cc1ncc(COP(=O)(O)O)c(C=O)c1O` [PLP], in assay [1], the “X-ray crystal structure, 2.10 Å” value is “The WT-GOT1 structure is a homodimer, each of which contains PLP”. Usually IC50 stands for the midpoint of a concentration-inhibition curve. Higher therefore signals lower potency. In assay [2], `O=C(Nc1ccccc1)N1CCN(c2cccc3[nH]ccc23)CC1` [iGOT1-01] showed an IC50 of 11.3 µM. For `O=C(O)CCC(=O)C(=O)O` [α-ketoglutarate], the Km in assay [3] is reported as ~ 0.5 mM.
